Source: article PMC10688702, “The indole motif is essential for the antitrypanosomal activity of N^5-substituted paullones” (PLOS ONE, 2023)
In brackets after ≈: the same amount, converted by molar mass.

What was measured:
[1] = test system: L. infantum amastigotes (intracellular, in J774.A1 macrophages); assay: Viability assay for L. infantum amastigotes; assay type: cell-based; conditions: Leishmania infantum, J774.A1, 24 h, read-out: L. infantum amastigote viability [% at 20 μM]
Outline: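 Luciferase-expressing L. infantum metacyclic promastigotes (MHOM/MA/67/ITMAP263) infected J774.A1 murine macrophages at 1:10 for 24 h at 37 °C, 5% CO2. After compound treatment, a further 24 h incubation followed. Percent amastigote viability, in triplicate, was normalised to host-cell density by a propidium iodide correction factor.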

[2] = Kinetic aqueous solubility by nephelometry; assay type: physicochemical; conditions: phosphate-buffered saline, aqueous buffer, kinetic from dmso stock, PBS pH 7.4, 1% DMSO, 25°C, logS = decadic logarithm of molar solubility [M]
Description: Phosphate-buffered saline pH 7.4 was prepared according to the European Pharmacopeia 10.4 by dissolving 2.38 g sodium monohydrogen phosphate dodecahydrate, 0.19 g potassium dihydrogen phosphate and 8.0 g sodium chloride in demineralised water (to a total volume of 1000 mL). The pH was adjusted to a value of 7.4 with hydrochloric acid. The buffer was filtered through a 0.45 μm membrane filter (Chromafil® Xtra PES-45/25) before use.
The kinetic aqueous solubility was determined by nephelometry. The measurements were performed on the NEPHELOstar Plus, with accompanying software Omega 5.11 and MARS 3.20 (BMG LABTECH, Ortenberg, Germany). Generally, 2 dilution series of 1–2 weighed portions of each substance were measured. First, stock solutions of the compounds were prepared in DMSO. A series of dilutions in DMSO were prepared from one stock solution to obtain at least 3 concentrations below and 3 concentrations above the precipitation point in the measured series. The specific concentrations were usually measured as duplicates.
The 96-well plate (Corning UV transparent flat-bottom 96-well plate, Corning Incorporated, Kennenbunk, ME, USA) was inspected for contamination and scratches and measured without samples prior to the solubility measurement of the compounds. 198 μL of phosphate-buffered saline pH 7.4 was placed in a 96 well plate for each well to be measured. 2 μL of a DMSO solution was added and immediately mixed by moving the pipette plunger. This solution either contained no substance—and served as a blank for the measurement (3 wells)—or the respective DMSO dilution of the substance (2–4 wells). The concentration of the solvent DMSO in each measured solution was 1%. The concentration of the compound corresponds to a 1:100 dilution compared to the respective DMSO dilution. The well plate bottom was cleaned with a lint-free cloth and compressed air and inspected for impurities before measurement. After shaking at 500 rpm for 10 s (double orbital), the measurement was carried out in the nephelometer with the laser intensity set to 80% and beam focus of 2.5 mm at a temperature of 25°C.
The obtained measuring points, relative nephelometric units (RNU) per compound concentration, were used to model two straight lines: one straight line with constant low readings and slope → 0 characterises the concentration range where no precipitation has taken place yet; The other straight line has a steep slope and increase of the RNU per concentration and characterises the concentrations at which precipitation takes place in the respective sample vessels.
The evaluation was carried out by calculating the two straight lines and their point of intersection. Outliers and values in a saturation range for the kick-off curve (usually >800 kRNU) were not used to create the straight lines and are listed separately in the evaluation file. […] The x-value of the intersection of the two straight lines represents the kinetic solubility. The results of two dilution series are additionally indicated as range (in brackets). For measurements of 3 or more series, a mean value with standard deviation is provided. The logS value describes the decadic logarithm of the molar solubility: logS (molar solubility [M]).

[3] = test system: bloodstream form of T. b. brucei strain 427; assay: Viability assay for T. b. brucei (whole parasite, bioluminescence); assay type: cell-based; conditions: 24 h; for T. b. brucei (BS) proliferation [% at 10 μM]: 10 μM compound; for EC50: Trypanosoma brucei, read-out: T. b. brucei (BS) [EC50
Description: Viability assay for T. b. brucei. The bloodstream form of the monomorphic T. b. brucei strain 427, cell line 5141313, constitutively and stably expressing an ectopic copy of the Photinus pyralis red-shifted luciferase, was cultured in vitro with HMI-9 medium, supplemented with 10% fetal bovine serum, 10 U/mL penicillin (Gibco), 10 μg/mL streptomycin (Gibco), 0.2 μg/mL bleomycin (Jena Bioscience), 4 μg/mL G418 disulfate salt (Sigma-Aldrich) and 0.2 μg/mL puromycin (Invitrogen), inside a humidified incubator (Thermo Fisher Scientific) with controlled temperature (37°C) and CO2 (5%) in a 25 or 75 cm^2 vented-cap culture-flask. The anti-trypanosomal activity of compounds was evaluated in a 96-well culture plate containing 2.2 μL/well DMSO (negative control) or compounds dissolved in DMSO (1% final concentration), and 220 μL/well of a suspension of 1 × 10^5 parasites/mL. The plates were incubated at 37°C and 5% CO2 for 24 h. Next, each well was transferred to a 96-well black plate, and 20 μL of a solution containing d-luciferin (1.5 mg/mL in PBS glucose 1% w/v) and Triton X-100 (0.05% v/v) was added. Bioluminescence signal was measured in a LUMIstar OPTIMA Microplate luminometer using the following settings: 10 s shaking, 5 s/well acquisition, 0.2 s measurement delay, maximum gain, and 37°C. For the bioluminescence assay, parasite viability was calculated according to the following formula: parasiteviability%=BLcpd-BLblank/BLneg-BLblank*100%
BL refers to the mean of bioluminescence signal corresponding to the tested compound (cpd), the blank (blank, complete media containing 1% v/v DMSO), or the negative control (neg, parasites treated with 1% v/v DMSO). EC50 values were determined from concentration-response curves fitted to a four-parameter sigmoid equation using the GraphPad Prism software (version 6.0). All errors are expressed as one SD, estimated as σ^n-1. For a detailed explanation of the protocol, see Dibello et al..

SMILES: CNCCNC(=O)CN1C(=O)Cc2c([nH]c3ccc(I)cc23)-c2ccc(Cl)cc21 [1f, 2-(3-Chloro-9-iodo-6-oxo-7,12-dihydrobenzo[2,3]azepino[4,5-b]indol-5(6H)-yl)-N-[2-(methylamino)ethyl]acetamide]
- viability at 20 µM [1]: 72 ± 5%
- solubility kinetic at 10 s [2]: 2.95e-05 M (≈ 15.4 µg/mL)
- T. b. brucei (BS) proliferation [% at 10 μM] [3]: 0.0 ± 1.7%
- EC50 [3]: 6.4 ± 1.7 µM

SMILES: CNCCNC(=O)CN1C(=O)Cc2c([nH]c3ccc(C(F)(F)F)cc23)-c2ccc(Cl)cc21 [1h, 2-(3-Chloro-6-oxo-9-trifluoromethyl-7,12-dihydrobenzo[2,3]azepino[4,5-b]indol-5(6H)-yl)-N-[2-(methylamino)ethyl]acetamide]
- viability at 20 µM [1]: 93 ± 10%
- solubility kinetic at 10 s [2]: 4.27e-05 M (≈ 19.8 µg/mL)
- T. b. brucei (BS) proliferation [% at 10 μM] [3]: 0.9 ± 1.3%
- EC50 [3]: 6.6 ± 1.1 µM

SMILES: CNCCNC(=O)CN1C(=O)Cc2c([nH]c3ccc(Cl)cc23)-c2ccc(Cl)cc21 [1g, 2-(3,9-Dichloro-6-oxo-7,12-dihydrobenzo[2,3]azepino[4,5-b]indol-5(6H)-yl)-N-[2-(methylamino)ethyl]acetamide]
- viability at 20 µM [1]: 70 ± 2%
- solubility kinetic at 10 s [2]: 4.79e-05 M (≈ 20.6 µg/mL)
- T. b. brucei (BS) proliferation [% at 10 μM] [3]: 0.0 ± 0.3%
- EC50 [3]: 4.7 ± 1.1 µM
